According to ChEMBL document CHEMBL1208760, “New antifungal peptides. Synthesis, bioassays and initial structure prediction by CD spectroscopy” (2010):

Key:
Assay type in all cases: functional
Details in all cases: read-out: GI
Cryptococcus neoformans [1] = assay: Antifungal activity against Cryptococcus neoformans ATCC 32264 assessed as inhibition of fungal growth at 100 uM
Candida albicans [2] = assay: Antifungal activity against Candida albicans ATCC 10231 assessed as inhibition of fungal growth at 12.5 uM
Candida albicans [3] = assay: Antifungal activity against Candida albicans ATCC 10231 assessed as inhibition of fungal growth at 200 uM
Cryptococcus neoformans [4] = assay: Antifungal activity against Cryptococcus neoformans ATCC 32264 assessed as inhibition of fungal growth at 50 uM
Candida albicans [5] = assay: Antifungal activity against Candida albicans ATCC 10231 assessed as inhibition of fungal growth at 6.25 uM
Cryptococcus neoformans [6] = assay: Antifungal activity against Cryptococcus neoformans ATCC 32264 assessed as inhibition of fungal growth at 25 uM
Cryptococcus neoformans [7] = assay: Antifungal activity against Cryptococcus neoformans ATCC 32264 assessed as inhibition of fungal growth at 12.5 uM
Candida albicans [8] = assay: Antifungal activity against Candida albicans ATCC 10231 assessed as inhibition of fungal growth at 25 uM
Candida albicans [9] = assay: Antifungal activity against Candida albicans ATCC 10231 assessed as inhibition of fungal growth at 100 uM
Candida albicans [10] = assay: Antifungal activity against Candida albicans ATCC 10231 assessed as inhibition of fungal growth at 50 uM
Cryptococcus neoformans [11] = assay: Antifungal activity against Cryptococcus neoformans ATCC 32264 assessed as inhibition of fungal growth at 200 uM
Cryptococcus neoformans [12] = assay: Antifungal activity against Cryptococcus neoformans ATCC 32264 assessed as inhibition of fungal growth at 6.25 uM

Compound: CC[C@H](C)[C@H](NC(=O)[C@H](CCCCN)NC(=O)[C@@H](NC(=O)[C@H](CCC(N)=O)NC(=O)[C@H](CCCNC(=N)N)NC(=O)[C@H](Cc1c[nH]c2ccccc12)NC(=O)[C@H](CCCNC(=N)N)NC(=O)[C@H](Cc1ccccc1)NC(=O)[C@@H](N)Cc1cnc[nH]1)[C@@H](C)CC)C(=O)N[C@@H](Cc1c[nH]c2ccccc12)C(=O)N[C@@H](Cc1ccccc1)C(=O)N[C@@H](CCC(N)=O)C(=O)N[C@@H](CC(N)=O)C(=O)N[C@@H](CCCNC(=N)N)C(=O)N[C@@H](CCCNC(=N)N)C(=O)N[C@@H](CCSC)C(=O)N[C@@H](CCCCN)C(=O)N[C@@H](Cc1c[nH]c2ccccc12)C(=O)N[C@@H](CCCCN)C(=O)N[C@@H](CCCCN)C(N)=O
- inhibition of growth at 100 µM (Cryptococcus neoformans [1]): 100%
- inhibition of growth at 12.5 µM (Candida albicans [2]): 3.85%
- inhibition of growth at 200 µM (Candida albicans [3]): 100%
- inhibition of growth at 50 µM (Cryptococcus neoformans [4]): 87.3%
- inhibition of growth at 6.25 µM (Candida albicans [5]): 0.9%
- inhibition of growth at 25 µM (Cryptococcus neoformans [6]): 85.9%
- inhibition of growth at 12.5 µM (Cryptococcus neoformans [7]): 74.3%
- inhibition of growth at 25 µM (Candida albicans [8]): 4.86%
- inhibition of growth at 100 µM (Candida albicans [9]): 100%
- inhibition of growth at 50 µM (Candida albicans [10]): 93.4%
- inhibition of growth at 200 µM (Cryptococcus neoformans [11]): 100%
- inhibition of growth at 6.25 µM (Cryptococcus neoformans [12]): 51%

Compound: CC[C@H](C)[C@H](NC(=O)[C@H](CCCCN)NC(=O)[C@@H]1CCCN1C(=O)[C@H](CCC(N)=O)NC(=O)[C@@H](N)CCCNC(=N)N)C(=O)N[C@H](Cc1c[nH]c2ccccc12)C(=O)N[C@@H](Cc1ccccc1)C(=O)N1CCC[C@H]1C(=O)N[C@@H](CC(N)=O)C(=O)N[C@@H](CCCNC(=N)N)C(=O)N[C@@H](CCCNC(=N)N)C(=O)N[C@@H](CCCCN)C(=O)N1CCC[C@H]1C(=O)N[C@@H](Cc1c[nH]c2ccccc12)C(=O)N[C@@H](CCCCN)C(=O)N[C@@H](CCCCN)C(N)=O
- inhibition of growth at 100 µM (Cryptococcus neoformans [1]): 100%
- inhibition of growth at 12.5 µM (Candida albicans [2]): 6.1%
- inhibition of growth at 200 µM (Candida albicans [3]): 100%
- inhibition of growth at 50 µM (Cryptococcus neoformans [4]): 100%
- inhibition of growth at 6.25 µM (Candida albicans [5]): 0%
- inhibition of growth at 25 µM (Cryptococcus neoformans [6]): 100%
- inhibition of growth at 12.5 µM (Cryptococcus neoformans [7]): 100%
- inhibition of growth at 25 µM (Candida albicans [8]): 15.4%
- inhibition of growth at 100 µM (Candida albicans [9]): 100%
- inhibition of growth at 50 µM (Candida albicans [10]): 41.4%
- inhibition of growth at 200 µM (Cryptococcus neoformans [11]): 100%
- inhibition of growth at 6.25 µM (Cryptococcus neoformans [12]): 79.9%

Compound: CC(=O)N1CCN(c2ccc(OCC3COC(Cn4ccnc4)(c4ccc(Cl)cc4Cl)O3)cc2)CC1 (configuration not stated) [KETOCONAZOLE]
- inhibition of growth at 100 µM (Cryptococcus neoformans [1]): 100%
- inhibition of growth at 12.5 µM (Candida albicans [2]): 100%
- inhibition of growth at 200 µM (Candida albicans [3]): 100%
- inhibition of growth at 50 µM (Cryptococcus neoformans [4]): 100%
- inhibition of growth at 6.25 µM (Candida albicans [5]): 100%
- inhibition of growth at 25 µM (Cryptococcus neoformans [6]): 100%
- inhibition of growth at 12.5 µM (Cryptococcus neoformans [7]): 100%
- inhibition of growth at 25 µM (Candida albicans [8]): 100%
- inhibition of growth at 100 µM (Candida albicans [9]): 100%
- inhibition of growth at 50 µM (Candida albicans [10]): 100%
- inhibition of growth at 200 µM (Cryptococcus neoformans [11]): 100%
- inhibition of growth at 6.25 µM (Cryptococcus neoformans [12]): 100%

Compound: H-KKWKMRRNQFWIKIQR-NH2
- inhibition of growth at 100 µM (Cryptococcus neoformans [1]): 100%
- inhibition of growth at 12.5 µM (Candida albicans [2]): 12%
- inhibition of growth at 200 µM (Candida albicans [3]): 100%
- inhibition of growth at 50 µM (Cryptococcus neoformans [4]): 99%
- inhibition of growth at 6.25 µM (Candida albicans [5]): 0%
- inhibition of growth at 25 µM (Cryptococcus neoformans [6]): 94.1%
- inhibition of growth at 12.5 µM (Cryptococcus neoformans [7]): 89.5%
- inhibition of growth at 25 µM (Candida albicans [8]): 25.8%
- inhibition of growth at 100 µM (Candida albicans [9]): 100%
- inhibition of growth at 50 µM (Candida albicans [10]): 100%
- inhibition of growth at 200 µM (Cryptococcus neoformans [11]): 100%
- inhibition of growth at 6.25 µM (Cryptococcus neoformans [12]): 55.9%

Compound: C[C@@H]1[C@H](O)[C@@H](C)/C=C/C=C/C=C/C=C/C=C/C=C/C=C/[C@H](O[C@@H]2O[C@H](C)[C@@H](O)[C@H](N)[C@@H]2O)C[C@@H]2O[C@](O)(C[C@@H](O)C[C@@H](O)[C@H](O)CC[C@@H](O)C[C@@H](O)CC(=O)O[C@H]1C)C[C@H](O)[C@H]2C(=O)O [AMPHOTERICIN B]
- inhibition of growth at 100 µM (Cryptococcus neoformans [1]): 100%
- inhibition of growth at 12.5 µM (Candida albicans [2]): 100%
- inhibition of growth at 200 µM (Candida albicans [3]): 100%
- inhibition of growth at 50 µM (Cryptococcus neoformans [4]): 100%
- inhibition of growth at 6.25 µM (Candida albicans [5]): 100%
- inhibition of growth at 25 µM (Cryptococcus neoformans [6]): 100%
- inhibition of growth at 12.5 µM (Cryptococcus neoformans [7]): 100%
- inhibition of growth at 25 µM (Candida albicans [8]): 100%
- inhibition of growth at 100 µM (Candida albicans [9]): 100%
- inhibition of growth at 50 µM (Candida albicans [10]): 100%
- inhibition of growth at 200 µM (Cryptococcus neoformans [11]): 100%
- inhibition of growth at 6.25 µM (Cryptococcus neoformans [12]): 100%

Compound: CC[C@H](C)[C@H](NC(=O)[C@H](CCCCN)NC(=O)[C@@H](NC(=O)[C@H](CCC(N)=O)NC(=O)[C@@H](N)CCCNC(=N)N)[C@@H](C)CC)C(=O)N[C@@H](Cc1c[nH]c2ccccc12)C(=O)N[C@@H](Cc1ccccc1)C(=O)N[C@@H](CCC(N)=O)C(=O)N[C@@H](CC(N)=O)C(=O)N[C@@H](CCCNC(=N)N)C(=O)N[C@@H](CCCNC(=N)N)C(=O)N[C@@H](CCSC)C(=O)N[C@@H](CCCCN)C(=O)N[C@@H](Cc1c[nH]c2ccccc12)C(=O)N[C@@H](CCCCN)C(=O)N[C@@H](CCCCN)C(N)=O [PENETRATIN]
- inhibition of growth at 100 µM (Cryptococcus neoformans [1]): 100%
- inhibition of growth at 12.5 µM (Candida albicans [2]): 4%
- inhibition of growth at 200 µM (Candida albicans [3]): 100%
- inhibition of growth at 50 µM (Cryptococcus neoformans [4]): 100%
- inhibition of growth at 6.25 µM (Candida albicans [5]): 0%
- inhibition of growth at 25 µM (Cryptococcus neoformans [6]): 100%
- inhibition of growth at 12.5 µM (Cryptococcus neoformans [7]): 90%
- inhibition of growth at 25 µM (Candida albicans [8]): 91%
- inhibition of growth at 100 µM (Candida albicans [9]): 100%
- inhibition of growth at 50 µM (Candida albicans [10]): 95%
- inhibition of growth at 200 µM (Cryptococcus neoformans [11]): 100%
- inhibition of growth at 6.25 µM (Cryptococcus neoformans [12]): 60%
